Results taken from US11633444B2, “Sporoderm-removed Ganoderma lucidum spore powder, granule and preparation method thereof” (ZHEJIANG SHOUXIANGU PHARMACEUTICAL COMPANY, LTD, priority 2017, dated 2023).
Structures can show the parent of a compound that is named as a salt.

Key:
Format in all cases: in vivo
[1] = test system: human lymphatic cancer (Ramos) transplanted tumor; experiment: Zebrafish human lymphatic cancer (Ramos) transplanted tumor model; conditions: 2 days at 35° C.; for Pixel of Sum of Fluorescence Intensities (mean ± SE): 5 μM
Description: Human lymphatic cancer (Ramos) cells were labeled with a red fluorescent dye (CM-Dil), and transplanted into zebrafish yolk sacs by microinjection, with about 200 cells being transplanted per zebrafish, so as to establish a zebrafish human lymphatic cancer transplanted tumor model.
Human lymphatic cancer (Ramos) cells were labeled with CM-Dil, and transplanted into 2 dpf wild type AB strain zebrafish yolk sacs by microinjection, with about 200 cells being transplanted per zebrafish, so as to establish a zebrafish human lymphatic cancer transplanted model; and the zebrafishes injected with the human lymphatic cancer cells were fed at 35° C. until 3 dpf.
Zebrafishes with better consistence in transplanted tumor cells were picked out under a microscope, randomly assigned to a 6-well plate, and were given in a water-dissolving administration manner respectively with the samples at concentrations respectively of 28, 83 and 250 μg/mL and the positive control drug vincristine at a concentration of 5 μM; and meanwhile a model control group was set, where there were 30 zebrafishes per well (concentration group), and the volume of each well was 5 mL. The zebrafishes in each experiment group were continually cultured at 35° C., and after 2 days, 10 zebrafishes were randomly selected from each experiment group to observe under a fluorescence microscope, and photographs of the 10 zebrafishes were taken and saved; and the photographs were analyzed using Nikon NIS-Elements D 3.10 Advanced image processing software to calculate the fluorescence intensities of cancer cells. The inhibitory effect of the sample on the zebrafish lymphatic cancer (Ramos) transplanted tumor was evaluated with the fluorescence intensities, and the tumor inhibition effect was calculated using the following equation.
A concentration-effect curve was drawn according to a growth inhibition effect on the transplanted tumor; statistical analysis was performed by variance analysis and Dunnett's T-test, where p<0.05 was considered as a significant difference; such that a representative experimental map was provided.

[2] = test system: human gastric cancer (SGC-7901) transplanted tumor; experiment: Zebrafish human gastric cancer (SGC-7901) transplanted tumor model; conditions: SGC-7901, 50 μM, 2 days at 35° C., n = 10
Description: Human gastric cancer (SGC-7901) cells were labeled with a red fluorescent dye (CM-Dil), and transplanted into zebrafish yolk sacs by microinjection, with about 200 cells being transplanted per zebrafish, so as to establish a zebrafish human gastric cancer transplanted tumor model.
Human gastric cancer (SGC-7901) cells were labeled with CM-Dil, and transplanted into 2 dpf wild type AB strain zebrafish yolk sacs by microinjection, with about 200 cells being transplanted per zebrafish, so as to establish a zebrafish human gastric cancer (SGC-7901) transplanted model; and the zebrafishes injected with the SGC-7901 cells were fed at 35° C. until 3 dpf.
(§1) Zebrafishes with better consistence in transplanted tumor cells were picked out under a microscope, randomly assigned to a 6-well plate, and were given in a water-dissolving administration manner respectively with the samples at concentrations respectively of 28, 83 and 250 μg/mL and the positive control drug cis-platinum at a concentration of 50 μM; and meanwhile a model control group was set, where there were 30 zebrafishes per well (concentration group), and the volume of each well was 5 mL. The zebrafishes in each experiment (concentration) group were continually cultured at 35° C., and after 2 days, 10 zebrafishes were randomly selected from each experiment (concentration) group to observe under a fluorescence microscope, and photographs of the 10 zebrafishes were taken and saved; and the photographs were analyzed using Nikon NIS-Elements D 3.10 Advanced image processing software to calculate the fluorescence intensities of cancer cells. The inhibitory effects of samples on the zebrafish gastric cancer (SGC-7901) transplanted tumor were respectively evaluated with the fluorescence intensities, and the tumor inhibition effect was calculated using the following equation. […]

[3] = test system: human lung adenocarcinoma (A549) transplanted tumor; experiment: Zebrafish human lung adenocarcinoma (A549) transplanted tumor model; conditions: A549, 50 μM, 2 days at 35° C., n = 10
Description: Human lung adenocarcinoma (A549) cells were labeled with a red fluorescent dye (CM-Dil), and transplanted into zebrafish yolk sacs by microinjection, with about 200 cells being transplanted per zebrafish, so as to establish a zebrafish human lung adenocarcinoma transplanted tumor model.
Human lung adenocarcinoma (A549) cells were labeled with CM-Dil, and transplanted into 2 dpf wild type AB strain zebrafish yolk sacs by microinjection, with about 200 cells being transplanted per zebrafish, so as to establish a zebrafish human lung adenocarcinoma (A549) transplanted model; and the zebrafishes injected with the A549 cells were fed at 35° C. until 3 dpf.
as §1, with “inhibitory effect” for “inhibitory effects”, “of the sample” for “of samples”, “zebrafish lung adenocarcinoma (A549)” for “zebrafish gastric cancer (SGC-7901)”, “tumor was” for “tumor were respectively”

Compound | Pixel of Sum of Fluorescence Intensities (mean ± SE) ([1]; n = 10) [pixels] | Pixel of Sum of Fluorescence Intensities (mean ± SE) ([1]; n = 10, listed as vincristine) | inhibition at 5 µM ([1]; Danio rerio, 48 h, n = 10, read-out: Inhibition Effect) [%] | Inhibition Effect [2] [%] | Pixel of Sum of Fluorescence Intensities (mean ± SE) [2] [pixels] | Pixel of Sum of Fluorescence Intensities (mean ± SE) ([2]; listed as cis-platinum) | Inhibition Effect [3] [%] | Pixel of Sum of Fluorescence Intensities (mean ± SE) [3] [pixels] | Pixel of Sum of Fluorescence Intensities (mean ± SE) ([3]; listed as cis-platinum)
CC[C@]1(O)C[C@H]2CN(CCc3c([nH]c4ccccc34)[C@@](C(=O)OC)(c3cc4c(cc3OC)N(C=O)[C@H]3[C@@](O)(C(=O)OC)[C@H](OC(C)=O)[C@]5(CC)C=CCN6CC[C@]43[C@@H]65)C2)C1 [Vincristine, Vincristine sulfate] | 153919 ± 13691 | 153,919 pixels | 33 | – | – | – | – | – | –
N.N.[Cl][Pt][Cl] [Cis-platinum] | – | – | – | 36 | 237655 ± 12361 | 237,655 pixels | 32 | 137287 ± 7835 | 137,287 pixels
